Assay results as given in PubChem BioAssay AID463199 (Broad Institute, 2010).
The source made the active and inactive calls.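 The calls were made as follows: active = AC50, the dose giving half-maximal effect, exceeds a fixed cutoff for a compound that rescues yeast growth under heat; inactive = the rest, inconclusive results apart.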

The compounds below were run on S. cerevisiae Burl-1 ts mutant growth, BacTiter-Glo, 38.5C 24 h (assay: restored growth of temperature-sensitive Burl-1 yeast – whole organism, S. cerevisiae, Burl-1 ts mutant, luminescence, counter-screen for SUMOylation pathway inhibitor project, dose response (AID 463199)).
`CN(C(=O)CSc1nc(-c2ccccc2)c(-c2ccccc2)o1)C1CCS(=O)(=O)C1` (stereo not drawn) was tested, and the AC50 was > 42 µM (inactive).
With `COc1ccc(C(=O)OCC(=O)c2ccc(C)c(S(=O)(=O)N3CCOCC3)c2)cc1OC` the AC50 was > 42 µM (inactive).
With `CCC(=O)Nc1ccc(S(=O)(=O)NCc2ccco2)cc1` the AC50 was > 42 µM (inactive).
In the case of `O=C(Cn1sc2ccccc2c1=O)NC12CC3CC(CC(C3)C1)C2`, the AC50 is reported as > 42 µM (inactive).
For `c1coc(C2OCC3(CO2)COC(c2ccco2)OC3)c1` (stereo not drawn), the AC50 was > 42 µM (inactive).
With `CN1C(=S)SC2CS(=O)(=O)CC21C` (stereo not drawn) the AC50 was > 21 µM (inactive).
In the case of `O=C(c1ccc(F)cc1)C(CN1CCOCC1)c1ccccc1` (stereo not drawn), the AC50 is reported as > 42 µM (inactive).
With `Cc1nc(NC(=O)CSc2nc(N)cc(N)n2)sc1C` the AC50 was > 42 µM (inactive).
`Cc1ccc(-n2nnnc2SCC#N)cc1` was tested, and the AC50 was > 42 µM (inactive).
With `Cc1cc(/C=C2\C(=O)NC(=O)N(c3ccccc3F)C2=O)c(C)n1-c1cc(C(=O)O)cc(C(=O)O)c1` the AC50 was > 42 µM (inactive).
For `CCN(CC)c1ccc(/C=N/NC(=O)OC(C)(C)C)cc1`, the AC50 was > 42 µM (inactive).
For `CN(Cc1cccnc1)Cc1cn[nH]c1-c1ccc(-c2ccccc2)cc1`, the AC50 was > 42 µM (inactive).
For `CC[C@H]1CCCCc2ccccc2[C@@H](C(=O)C[C@@H](O)CC(C)=O)OC1=O`, the AC50 was > 42 µM (inactive).
For `Cc1ccc(S(=O)(=O)N2[C@@H](c3ccccc3)C(C(=O)O)=CC[C@H]2c2ccc(Cl)cc2)cc1`, the AC50 was > 42 µM (inactive).
`Cn1cc(Br)c(C(=O)Nc2nccs2)n1` was tested, and the AC50 was > 42 µM (inactive).
For `CCC(=O)Nc1ccc(Br)c(Cl)c1`, the AC50 was > 42 µM (inactive).
In the case of `O=C(COC(=O)c1c(F)cccc1F)c1ccc[nH]1`, the AC50 is reported as > 42 µM (inactive).
For `CN(CC(=O)Nc1cccc(F)c1)CC(=O)Nc1cccc(S(N)(=O)=O)c1`, the AC50 was > 42 µM (inactive).
With `CCOC(=O)c1nc(Nc2ccccc2CC)c2ccccc2n1` the AC50 was > 42 µM (inactive).
`N#Cc1ccc(/C=C/C(=O)c2ccco2)cc1` was tested, and the AC50 was > 42 µM (inactive).
In the case of `Nc1ccc(N2CCN(c3ccc(F)cc3)CC2)cc1`, the AC50 is reported as > 42 µM (inactive).
In the case of `O=C(CCC1CCCN(C(=O)Cc2cccc(F)c2)C1)N1CCN(c2ccccn2)CC1` (stereo not drawn), the AC50 is reported as > 42 µM (inactive).
In the case of `CCOC(=O)c1c(N)sc(C(=O)N2CCCC(C(N)=O)C2)c1C` (stereo not drawn), the AC50 is reported as > 42 µM (inactive).
With `CCCCCCOc1ccc(N2C(=O)CC(N3CCC(C(=O)OCC)CC3)C2=O)cc1` (stereo not drawn) the AC50 was > 42 µM (inactive).
For `Cc1ccc(C(=O)c2cc([N+](=O)[O-])ccc2N2CCCCC2)cc1C`, the AC50 was > 42 µM (inactive).
`CCN(C(=O)CCS(=O)(=O)c1ccc2c(c1)oc(=O)n2C)c1ccc(OC)cc1` was tested, and the AC50 was > 42 µM (inactive).
`Cc1cc(-c2ccc(C(C)C)c(S(=O)(=O)N3CC(=O)Nc4ccccc43)c2)on1` was tested, and the AC50 was > 42 µM (inactive).
In the case of `CN1C(=O)c2cccc3c(Cl)ccc(c23)C1=O`, the AC50 is reported as > 42 µM (inactive).
With `CCOc1cc(/C=N/NC(=O)C(=O)N/N=C/c2ccc(O)c(OCC)c2)ccc1O` the AC50 was > 42 µM (inactive).
With `O=Nc1c(-c2cccc([N+](=O)[O-])c2)nc2ncccn12` the AC50 was > 42 µM (inactive).
With `CCCOc1ccc([N+](=O)[O-])c(N)c1` the AC50 was > 42 µM (inactive).
For `CCCCOc1ccc(CSC(=N)N)cc1Cl`, the AC50 was > 42 µM (inactive).
With `COC(=O)C1CCN(S(=O)(=O)Cc2ccccc2)CC1` the AC50 was > 42 µM (inactive).
With `Cc1ccc(NS(=O)(=O)c2c(C)[nH]c(C)c2C(=O)N2CCCCC2)c(Cl)c1` the AC50 was > 42 µM (inactive).
`CC(C)C(=O)Nc1ccc(NC(=S)NC(=O)c2ccccc2F)cc1` was tested, and the AC50 was > 42 µM (inactive).
In the case of `Cc1ccc(-n2c(-c3ccco3)nc3c(cnn3-c3ccc(C)cc3)c2=O)cc1`, the AC50 is reported as > 42 µM (inactive).
For `COc1cc(OC)c(C(=O)N2CCN(c3ccccn3)CC2)cc1OC`, the AC50 was > 42 µM (inactive).
In the case of `COc1ccc(OC)c(Cc2nnc(CCC(=O)NCc3ccsc3)o2)c1`, the AC50 is reported as > 42 µM (inactive).
With `Cc1ccc(SC[C@H](C)CN2CC[C@H](C)CCC2=O)cc1` the AC50 was > 42 µM (inactive).
`CC(=O)/C(N)=N/Nc1cccc(Cl)c1` was tested, and the AC50 was > 42 µM (inactive).
`CC(C)=CC(=O)N1CCCC(N2CCN(c3ccc(F)cc3)CC2)C1` (stereo not drawn) showed an AC50 of 2.02 µM.
For `O=C(NCc1ccccn1)C1Nc2ccc(C(F)(F)F)cc2C2C=CCC12` (stereo not drawn), the AC50 was > 42 µM (inactive).
For `Clc1ccc(N=c2ssnc2Cl)nc1`, the AC50 was > 42 µM (inactive).
In the case of `N#CCCN(Cc1cccnc1)C(=O)Nc1cccc(Cl)c1`, the AC50 is reported as > 42 µM (inactive).
`N#C/C(=C\c1cn(-c2ccccc2)nc1-c1cccnc1)c1nnc2n1CCCCC2` was tested, and the AC50 was > 42 µM (inactive).
In the case of `O=C(NCc1ccccc1Cl)c1ccc2c(c1)OCO2`, the AC50 is reported as > 42 µM (inactive).
With `CCCCC(O)(CCCC)C(=O)NN(C(=O)OC)c1ccc(C)cc1` the AC50 was > 42 µM (inactive).
With `CC(=O)c1ccc(Nc2cc(C)nc3ccccc23)cc1` the AC50 was > 42 µM (inactive).
In the case of `Nc1ccc(Oc2ccccc2-c2ccccc2)cc1`, the AC50 is reported as > 42 µM (inactive).
With `Cc1c(OC(C)C(=O)N2C[C@H]3C[C@@H](C2)c2cccc(=O)n2C3)ccc2c3c(c(=O)oc12)CCCC3` (stereo partly drawn) the AC50 was > 42 µM (inactive).
With `CN(C)c1ccc(NS(=O)(=O)c2cccc(Cl)c2)cc1` the AC50 was > 42 µM (inactive).
In the case of `CC(C)NC(=O)c1ccccc1-c1ccccc1`, the AC50 is reported as > 42 µM (inactive).
`CCn1cc(C(=O)NCc2ccccn2)c(=O)c2cc(F)c(N3CCN(C)CC3)cc21` was tested, and the AC50 was > 42 µM (inactive).
In the case of `CCCCOCCCNS(=O)(=O)Cc1ccccc1`, the AC50 is reported as > 42 µM (inactive).
For `COc1ccc(Cc2nnc(NCCO)[nH]c2=O)cc1`, the AC50 was > 42 µM (inactive).
In the case of `COc1cc(C(c2c(C)[nH][nH]c2=O)c2c(C)[nH][nH]c2=O)cc(OC)c1OC`, the AC50 is reported as > 42 µM (inactive).
For `Clc1cc(Br)ccc1OCCOCCN1CCOCC1`, the AC50 was > 42 µM (inactive).
In the case of `Cc1cc(S(=O)(=O)NCC(C)C)ccc1OCC(=O)N1CCOCC1`, the AC50 is reported as > 42 µM (inactive).
For `CC(C)(C)CC(=O)Nc1cc(S(=O)(=O)N2CCOCC2)ccc1N1CCCC1`, the AC50 was > 42 µM (inactive).
With `Cc1cccc(OCC(O)CN2C(C)(C)CC(O)CC2(C)C)c1` (stereo not drawn) the AC50 was > 42 µM (inactive).
With `CCOCCCNCc1ccc(OCc2ccc(F)cc2)c(OC)c1` the AC50 was > 42 µM (inactive).
For `C=C(C)Cn1c(N)cc(=O)nc1SCC(=O)Nc1cccc(C(F)(F)F)c1`, the AC50 was > 42 µM (inactive).
For `Cc1sc2nc(N)sc2c1C`, the AC50 was > 42 µM (inactive).
`O=C(CCCNC(=O)/C(=C/c1ccccc1F)NC(=O)c1ccccc1)OCc1ccccc1` was tested, and the AC50 was > 42 µM (inactive).
With `O=C(NCc1csc(-c2cccs2)n1)Nc1ccc(F)cc1F` the AC50 was > 42 µM (inactive).
`CN(Cc1ccc(C(C)(C)C)cc1)C(=O)c1ccc2c(=O)n3c(nc2c1)CCC3` was tested, and the AC50 was > 42 µM (inactive).
In the case of `CCN1CCN(CC(=O)Nc2cccc(C)c2C)C(=O)C1=O`, the AC50 is reported as > 42 µM (inactive).
`O=C(NNC(=O)C12CC3CC(CC(C3)C1)C2)c1ccccn1` was tested, and the AC50 was > 42 µM (inactive).
For `CCOC(=O)C1CCCN(C(=O)c2cc(-c3ccc(F)cc3)nc3ccccc23)C1` (stereo not drawn), the AC50 was > 42 µM (inactive).
`CCOc1ccc2[nH]c(=O)c(CN(Cc3ccco3)C(CC)c3nnnn3Cc3ccccc3)cc2c1` (stereo not drawn) was tested, and the AC50 was > 42 µM (inactive).
In the case of `O=c1[nH]cnc2ccc([N+](=O)[O-])cc12`, the AC50 is reported as > 42 µM (inactive).
In the case of `CCN(CC)CCCNC(=O)C1c2ccccc2C(=O)N(CCOC)C1c1ccc(F)cc1` (stereo not drawn), the AC50 is reported as > 21 µM (inactive).
`CCOC(=O)c1[nH]c2ccc(F)cc2c1NC(=O)CCN1CCOCC1` was tested, and the AC50 was > 42 µM (inactive).
